Results taken from patent US7335505B2, “Materials and methods relating to protein aggregation in neurodegenerative disease” (Wista Laboratories Ltd., priority 2001, dated 2008).

How the values were obtained:
[1] = Extent of reduction of diaminophenothiazines by DTT or ascorbic acid; format: physicochemical; conditions: approx. 500:1 DTT excess, at 120 minutes
[2] = target: T1, full-length human tau (T40) / 12 kD PHF-core tau fragment (Homo sapiens, UniProt P10636); conditions: for inhibition of 12 kD:T40 ratio (in words): IPTG 0-50 μM, thionine and tolonium chloride with 200 μM DTT/ascorbate, chlorpromazine and tacrine without reducing agents
T1 sequence (P10636 1-441 isoform P10636-8): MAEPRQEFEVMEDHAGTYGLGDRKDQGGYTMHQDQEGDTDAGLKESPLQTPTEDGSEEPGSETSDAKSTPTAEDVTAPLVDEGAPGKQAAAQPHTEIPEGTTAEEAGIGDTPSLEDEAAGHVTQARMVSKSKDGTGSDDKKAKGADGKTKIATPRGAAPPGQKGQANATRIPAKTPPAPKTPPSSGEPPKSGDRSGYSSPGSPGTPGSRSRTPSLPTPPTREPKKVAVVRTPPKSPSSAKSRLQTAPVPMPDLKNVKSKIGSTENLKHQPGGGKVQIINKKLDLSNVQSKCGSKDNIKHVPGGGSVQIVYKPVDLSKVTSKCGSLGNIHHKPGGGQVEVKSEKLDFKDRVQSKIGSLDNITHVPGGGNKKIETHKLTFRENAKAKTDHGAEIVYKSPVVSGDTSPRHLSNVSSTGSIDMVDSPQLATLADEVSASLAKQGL

[3] = target: T1, full-length human tau (T40) / 12 kD PHF-core tau fragment; assay: cell-based
[4] = in vivo; cited from earlier work

| Molecule | extent of reduction [1] | inhibition of 12 kD:T40 ratio (in words) [2] | Ki [3] [nM] | further results |
| --- | --- | --- | --- | --- |
| Cc1cc(N(C)C)cc2[s+]c3cc(N(C)C)cc(C)c3nc12 [DMMB, 1,9-Dimethylmethylene Blue] | relatively little reduced | – | – | effect on tau degradation products within the cell ([2]; 1 μM DMMB, with and without IPTG induction): effectively abolished all degradation products; IC50 ([2]; read-out: cellular B50 value, base-line expression of the 12/14 kD species, concentration reducing 12 kD production to 50%): ~100 nM |
| CN(C)CCCN1c2ccccc2Sc2ccc(Cl)cc21 [chlorpromazine] | – | non-inhibitory | 2120 | – |
| Nc1c2c(nc3ccccc13)CCCC2 [tacrine] | – | non-inhibitory | 802 | – |
| Cc1cc2nc3ccc(N(C)C)cc3[s+]c2cc1N [tolonium chloride] | – | – | – | half live in blood [4]: approximately 100 minutes |
| thionine | completely reduced | essentially identical inhibition | – | toxicity to cells of the assay [2]: toxic; conversion of induced T40 into the 12 kD fragment ([2]; 2 μM thionine (reduced), increasing IPTG): not converted into the 12 kD fragment |
